Experimental data published in patent publication US10227369B2, “Short-chain fatty acid hexosamine analogs and their use in tissue engineering applications” (THE JOHNS HOPKINS UNIVERSITY, priority 2013, dated 2019).

Tests used:
[1] = system: IL-1β-stimulated chondrocytes; assay: IL-1β-stimulated chondrocytes in 3D PEGDA hydrogels: biochemical analysis (DNA, sGAG, collagen), histology, immunohistochemistry; type: cell-based, bovine; settings: 10 ng/ml IL-1β, 21 days
Description: (§1) Cell Isolation and Culturing. Bovine chondrocytes were isolated from 4- to 8-week-old calves (Research 87, Inc., Boylston, Mass.), as previously described. Briefly, cartilage was dissected from the femoral patellar groove and condyles and minced into approximately 1 mm^2 pieces. Cells were isolated from the tissue by digesting overnight at 37° C. with 2 mg/ml type II collagenase (Worthington Biochemical Corp., Lakewood, N.J.), 5% fetal bovine serum (FBS), 100 U/ml penicillin and 100 μg/ml streptomycin on an orbital shaker. The cell suspension was passed through a 70 μm cell strainer, followed by centrifugation. Cells were washed 3 times using sterile phosphate buffered saline (PBS). Chondrocyte medium was composed of high glucose Dulbecco's Modified Eagle's Medium (DMEM) supplemented with 10 mM HEPES, 0.4 mM L-proline, 50 μg/ml ascorbic acid, 10% (v/v) fetal bovine serum (FBS; Hyclone Laboratories, Inc., Logan, Utah), 0.1 mM non-essential amino acids, 100 U/ml penicillin and 100 μg/ml streptomycin.
(§2) Photoencapsulation in Poly(Ethylene Glycol)-Diacrylate (PEGDA) Hydrogels and Construct Culturing. For all 3D culture experiments, cells were photoencapsulated in PEGDA hydrogels, as previously described. Briefly, 100 mg PEGDA (3.4 kDa, SunBio, Anyang City, South Korea) was dissolved in 1 ml sterile PBS. A photoinitiator solution of Irgacure® 2959 (CIBA Specialty Chemicals) was prepared by dissolving 100 mg of Irgacure® 2959 in 1 ml 70% ethanol. Five microliters of the Irgacure® 2959 solution was added to 1 ml of PEGDA solution. Cells were suspended in the hydrogel precursor solution at a density of 20 million cells/ml and polymerized in sterile molds. A high cell density was chosen as it has been shown. Based on our previous studies a high cell density was chosen to best to support a cell phenotype and differentiation and cell phenotype. Polymerization was carried out using UV light (365 nm, 3.2 mW/cm^2) exposure for 5 minutes.
For chondrocyte experiments, the cell-laden hydrogels were cultured in chondrocyte medium supplemented with 10 ng/ml IL-1β for 3 days. Following the initial 3 days, constructs were cultured with medium containing specific concentrations of hexosamine analog with 10 ng/ml IL-1β for an additional 21 days. The medium was changed 3 times per week.
Biochemical Analysis. The constructs (n=3 for chondrocyte experiments and n=4 for chondrogenic experiments) were lyophilized for 48 hours and the dry weights measured. Constructs were then homogenized in 125 μg/ml papainase (Worthington Biochemical Corp., Lakewood, N.J.) and digested for 16 hours at 60° C. Quantification of DNA content was carried out using a Hoescht Dye 33342 DNA assay. Calf thymus DNA was used to generate standard curves. Quantification of sulfated glycosaminoglycans (sGAG), a molecule found in cartilage ECM, was carried out using a 1,9-dimethylmethylene blue (DMMB) dye assay; chondroitin sulfate was used to generate standard curves. Quantification of collagen was carried out via measuring hydroxyproline content after hydrolyzing in 6 N HCl overnight at 120° C. The reaction of hydroxyproline with chloramine-T and p-dimethylaminobenzaldehyde was performed as a measure of total collagen content; hydroxyproline was used to generate standard curves.
Histology and Immunohistochemistry. Constructs were fixed in 10% formalin or 4% paraformaldehyde followed by dehydration in increasing concentrations of ethanol, embedded in paraffin and sliced into 5 μm sections. After paraffin removal and subsequent rehydration, sections were stained for proteoglycans using Safranin-O and fast green or prepared for immunohistochemistry. For immunohistochemical staining of type II collagen, endogenous peroxidase was quenched using 3% (v/v) hydrogen peroxide in methanol. Sections were then incubated at 37° C. with 2.5% (w/v) hyaluronidase and stained using a Histostain-SP Kit (AEC, Broad Spectrum) (Life Technologies, Grand Island, N.Y.) following the manufacturer's instructions. […]

[2] = system: chondrogenic-induced MSCs; assay: Chondrogenic-induced MSCs in 3D PEGDA hydrogels: biochemical analysis and histology; type: cell-based, goat; settings: 21 days
Description: (§3) Goat MSCs were isolated from 2- to 4-year-old goats (Thomas D. Morris, Inc., Reisterstown, Md.), as previously described. Briefly, bone marrow aspirates treated with 6,000 U/ml heparin were washed twice with PBS. Cells were plated at a density of 120,000 mononuclear cells/cm^2 and cultured in high glucose DMEM supplemented with 10% (v/v) FBS, 2 mM L-glutamine, 100 U/ml penicillin and 100 μg/ml streptomycin. The following day, tissue culture dishes were washed with PBS and medium was replaced. Medium changes were performed 3 times per week. Cells were passaged using 0.25% trypsin. They were used for experiments after passage four.
as §2, with “minutes. […]” for “minutes.”
(§4) Biochemical Analysis. The constructs (n=3 for chondrocyte experiments and n=4 for chondrogenic experiments) were lyophilized for 48 hours and the dry weights measured. […] Quantification of DNA content was carried out using a Hoescht Dye 33342 DNA assay. […] Quantification of sulfated glycosaminoglycans (sGAG), a molecule found in cartilage ECM, was carried out using a 1,9-dimethylmethylene blue (DMMB) dye assay; chondroitin sulfate was used to generate standard curves. Quantification of collagen was carried out via measuring hydroxyproline content after hydrolyzing in 6 N HCl overnight at 120° C. […]

Chondrocytes = assay: WST-1 metabolic activity/toxicity screening of monolayer chondrocytes; type: cell-based, bovine; settings: 3 days exposure, 0-320 μM tested
Description: as §1, with “Chondrocyte medium was composed of high glucose Dulbecco's Modified Eagle's Medium (DMEM) supplemented with 10 mM HEPES, 0.4 mM L-proline, 50 μg/ml ascorbic acid, 10% (v/v) fetal bovine serum (FBS; Hyclone Laboratories, Inc., Logan, Utah), 0.1 mM non-essential amino acids, 100 U/ml penicillin and 100 μg/ml streptomycin.” left out
Metabolic Activity/Toxicity Screening: Water Soluble Tetrazonium-1 (WST-1) Assay. […] Absorbance of the wells was read using a microplate reader at a wavelength of 450 nm. The absorbance of the wells containing WST-1 reagent with no cells was subtracted from the absorbance readings. Data is presented as the background subtracted reading normalized to 0 μM wells from five independent experiments for each hexosamine analog.

[3] = system: chondrogenic-induced MSCs stimulated by IL-1β; assay: IL-1β-stimulated chondrogenic-induced MSCs in 3D PEGDA hydrogels: biochemical analysis; type: cell-based, goat; settings: 10 ng/ml IL-1β, 21 days exposure
Description: as §3
Photoencapsulation in Poly(Ethylene Glycol)-Diacrylate (PEGDA) Hydrogels and Construct Culturing. […]
as §4

[4] = system: chondrogenic-induced MSCs; assay: Chondrogenic-induced MSCs in 3D PEGDA hydrogels: real-time PCR gene expression; type: cell-based, goat
Description: as §3, §2
For chondrogenesis experiments, the cell-laden hydrogels were cultured in chondrogenic induction medium (high glucose DMEM supplemented with 50 μg/ml ascorbic acid-2-phosphate, 40 μg/ml L-proline, 100 μg/ml sodium pyruvate, 1% ITS-premix (6.25 μg/ml insulin, 6.25 μg/ml transferrin, 6.25 ng/ml selenous acid, 1.25 mg/ml bovine serum albumin (BSA), 5.35 μg/ml linoleic acid (Collaborative Biomedical, BD Bioscience, Bedford, Mass.)) and 10 ng/ml TGF-β1 (Fitzgerald Industries International, Acton, Mass.) with specified concentrations of GalNAc-a or 100 nM dexamethasone (as a control). Constructs were cultured for 21 days with medium changes 3 times per week. For IL-1β stimulation, the cell-laden hydrogels were cultured for 3 days in chondrogenic induction medium supplemented with 10 ng/ml IL-1β. Constructs were cultured for an additional 21 days with chondrogenic induction medium supplemented with 10 ng/ml IL-1β and the specified concentration of GalNAc-a.
RNA Isolation and Real-Time PCR. Total RNA was extracted using TRIzol® reagent (Life Technologies, Grand Island, N.Y.) following the manufacturer's protocol. cDNA was synthesized using Superscript® II reverse transcriptase (Life Technologies, Grand Island, N.Y.) following the manufacturer's protocol. Real-time PCR was carried out using a StepOnePlus™ Real-Time PCR System (Life Technologies, Grand Island, N.Y.). mRNA amounts for bovine primers were calculated using the ΔΔCt method. Relative mRNA quantities for goat primers were calculated using the Pfaffl method.

[5] = both medium conditions, 21 days, dexamethasone 100 nM

DNA content ([2]; with or without ascorbic acid): did not change
DNA content [3]: did not have an effect
Compound: CCCC(=O)OC[C@H]1OC(O)[C@H](NC(C)=O)[C@@H](OC(=O)CCC)[C@H]1OC(=O)CCC (stereo partly drawn) [GalNAc-a, 3,4,6-O-Bu3GalNAc]
proteoglycan deposition (Safranin-O staining) ([1]; at 150 μM): further increase
sGAG accumulation normalized to DNA ([1]; at 150 μM): further increase
type II collagen deposition (immunohistochemistry) ([1]; starting at 50 μM, comparison of the three analogs): highest staining intensity
cartilage-like tissue formation (sGAG content, proteoglycan and type II collagen staining) ([1]; comparison of the three analogs): greatest cartilage-like tissue formation
chondrogenic differentiation of the MSCs [2]: inhibits chondrogenic differentiation
total collagen accumulation normalized to DNA ([2]; ascorbic acid-containing medium, GalNAc-a varying concentrations, dexamethasone 100 nM): dose-dependent decrease
sGAG accumulation normalized to DNA ([2]; both medium conditions (with/without ascorbic acid), GalNAc-a varying concentrations, dexamethasone 100 nM): dose-dependent decrease
concentration from which reduced viability was observed (Chondrocytes): ≥ 160 µM
sGAG accumulation normalized to DNA [3]: decreased sGAG accumulation
SOX9 gene expression ([4]; 50 μM to 150 μM, both medium conditions, 21 days): decreased in a dose-dependent manner
SOX9 gene expression ([4]; 50 μM, ascorbic acid-containing medium, 21 days): increased SOX9 expression
type I collagen gene expression ([4]; 50 μM, both medium conditions, 21 days): initially increased
type I collagen gene expression compared to no analog exposure ([4]; above 50 μM for GalNAc-a, dexamethasone 100 nM, both medium conditions): remained elevated
MMP13 gene expression ([4]; all analog concentrations, regardless of medium condition): increased at all analog concentrations
aggrecan gene expression [4, 5]: followed a similar trend as SOX9 expression
type II collagen gene expression [4, 5]: decreased type II collagen expression
